Source: patent US10987343B2, “Compositions and methods for treating pulmonary diseases” (CASE WESTERN RESERVE UNIVERSITY, priority 2015, dated 2021)

Experiments:
[1] = tested on: CF mice; assay: Pulmonary mechanics of CF mice by forced oscillation technique (FlexiVent) after treatment with AGTR2 blocker; format: in vivo; conditions: 2 mg/kg per day subcutaneous, 5 days per week, age 3 to 16 weeks, assessed at 16 weeks, 2 mg/kg/day
From the text: AGTR2 knockout mice (AT KO; dark grey bars) are indistinguishable from WT mice.
We recently used a forced mechanical oscillation procedure to evaluate pulmonary mechanics in CF mice (DF508 congenic C57bl/6). We determined that CF mice have decreased compliance and increased elastance of their overall respiratory system, along with altered airway tissue elastance, damping, and static compliance (FIG. 1). […] Taken together, these findings indicate increased impedance of the small airways in CF mice, as differences in CF mouse pulmonary mechanics were confined to the peripheral tissues, which include the distal airways and lung parenchyma itself. This is consistent with the pulmonary phenotype of CF patients, where significant increases in small airways resistance may occur even in patients with normal spirometry.
(§1) Drugs exist that are designed to specifically block the AGTR2 receptor, and we used one of these drugs to determine whether the same benefits may be achievable through pharmaceutical intervention. Briefly, CF mice were treated via subcutaneous injection of EMA200 (PD123319), available from Sigma Pharmaceuticals), at a dose of 2 mg/kg per day. The mice were treated from age 3 weeks through adulthood (16 weeks), 5 days per week. At 16 weeks, the pulmonary mechanics of the mice were assessed using the forced oscillation technique (FIG. 1).

[2] = tested on: CF mice; assay: Survival and health of CF mice during the drug study; format: in vivo
Procedure: as §1

With `Cc1cc(Cn2cnc3c2CC(C(=O)O)N(C(=O)C(c2ccccc2)c2ccccc2)C3)ccc1N(C)C` (centres unmarked) [EMA200, 1-(4-Dimethylamino-3-methylphenyl)methyl-5-diphenylacetyl-4,5,6,7-tetrahy-dro-1H-imidazo[4,5-c]-pyridine-6-carboxylic acid] the “pulmonary mechanics / all aspects of pulmonary disease (respiratory system compliance and elastance, tissue damping, tissue elastance, static tissue compliance)” value [1] was “successfully restored/prevented all aspects of pulmonary disease in CF mice”, the “shape parameter (inhalation/exhalation curve shape, K)” value [1] was “not improved” and the “pulmonary mechanics / all aspects of pulmonary disease (respiratory system compliance and elastance, tissue damping, tissue elastance, static tissue compliance)” value ([1]; listed as AGTR2 inhibitor) was “improved pulmonary mechanics”. The “survival of CF mice” value ([2]; 6 CF mice, daily injections, saline controls 5/6 died) was “all survived” and the “general health appearance of CF mice” value ([2]; versus control untreated CF mice) was “appeared much healthier”.
